Laboratory results published in patent publication US5057520A, “7-(peptidylpyrolidinyl)naphthyridine antibacterial compounds” (Abbott Laboratories, priority 1989, dated 1991).
Values after ≈ are worked out from the molar mass of the structure shown. Structures can show the parent of a compound that is named as a salt.

Experiments:
P. Aeruginosa A5007 = experiment: Acute mouse protection test; assay type: in vivo; settings: mice infected i.p. with P. Aeruginosa A5007, observed 7 days; for SC (ED50): SC dosing at 1 and 5 hours post-infection; for Oral (ED50): oral dosing at 1 and 5 hours post-infection
Stap. Aureus NCTC 10649 = experiment: Acute mouse protection test; assay type: in vivo; settings: mice infected i.p. with Stap. Aureus NCTC 10649, observed 7 days; for SC (ED50): SC dosing at 1 and 5 hours post-infection; for Oral (ED50): oral dosing at 1 and 5 hours post-infection
E. Coli Juhl [1] = experiment: Acute mouse protection test; assay type: in vivo; settings: mice infected i.p. with E. Coli JUHL, observed 7 days; for SC (ED50): SC dosing at 1 and 5 hours post-infection; for Oral (ED50): oral dosing at 1 and 5 hours post-infection
[2] = Conversion of prodrug to parent drug in whole blood at 37° C.; assay type: in vitro ADME, Dog
Description: An aqueous solution of prodrug (Z) is spiked into fresh whole blood containing sodium heparin as an anticoagulant. The sample is mixed gently by inversion and placed in a 37° waterbath. At selected time intervals an 0.5 ml aliquot of blood is removed and placed in a chilled 1.5 ml centrifuge tube (ice temperature). Samples are centrifuges at 13,000 rpm for two minutes to separate plasma. An 0.2 ml aliquot of the plasma sample is combined with 0.2 ml internal standard (7-(4-amino-2-methyl-1-pyrrolidinyl)-1-(2,4-difluorophenyl)-6-fluoro-1,4-d ihydro-4-oxo-1,8-naphthyridine-3-carboxylic acid in 0.2M sodium phosphate pH 7.2 buffer) and 6 mls CH2 Cl2 :EtoH (9:1 by volume). Samples are capped and shaken gently for 10 minutes. Samples are centrifuges at 2500 rpm for 10 minutes (4° C.). The aqueous layer is aspirated to waste and the organic layer is transferred to a conical centrifuge tube and evaporated to dryness with a stream of dry air and low heat ([…]). Samples are reconstituted with 0.2 ml mobile phase followed by vortexing. Samples are centrifuges at 2500 rpm for 10 minutes to separate precipitate. The supernatant is transferred to a WISP vial with plastic insert for HPLC analysis.

Strep. pyogenes EES 61 = experiment: Second in vitro MIC test, Brain Heart Infusion Broth (BHIB); assay type: cell-based
Ps. Aeruginosa A5007 = experiment: as above; assay type: cell-based
E. Coli Juhl [3] = experiment: as above; assay type: cell-based

SMILES | SC (ED50) (P. Aeruginosa A5007) [mg/kg/day] | Oral (ED50) (P. Aeruginosa A5007) [mg/kg/day] | SC (ED50) (Stap. Aureus NCTC 10649) [mg/kg/day] | Oral (ED50) (Stap. Aureus NCTC 10649) [mg/kg/day] | Solubility pH 7.4 [mg/ml] | SC (ED50) (E. Coli Juhl [1]) [mg/kg/day] | Oral (ED50) (E. Coli Juhl [1]) [mg/kg/day] | Half Life Dog [2] [min] | MIC (Strep. pyogenes EES 61) [µg/mL] | MIC (Ps. Aeruginosa A5007) [µg/mL] | MIC (E. Coli Juhl [3]) [µg/mL]
N[C@@H](CC(=O)O)C(=O)NC1CCN(c2nc3c(cc2F)c(=O)c(C(=O)O)cn3-c2ccc(F)cc2F)C1 (stereo partly drawn) [Example 45, 7-(3-L-Asp-amino-1-pyrrolidinyl)-1-(2,4-difluorophenyl)-6-fluoro-1,4-dihyd ro-4-oxo-1,8-naphthyridine-3-carboxylic acid hydrochloride] | 6.6 | 13.0 | 0.7 | 1.5 | 2.40 |  |  |  |  |  | 
CCCC(N)C(=O)NC1CCN(c2c(F)cc3c(=O)c(C(=O)O)cn(C4CC4)c3c2F)C1 (stereo not shown) [Example 26r] | 2.7 | 7.3 | 0.9 | 3.0 |  | 0.2 | 2.3 | 1.2 |  |  | 
CS(=O)(=O)CC[C@H](N)C(=O)NC1CCN(c2nc3c(cc2F)c(=O)c(C(=O)O)cn3-c2ccc(F)cc2F)C1 (stereo partly drawn) [Example 31c, 7-[3-L-Methioninesulfone-Amino-1-Pyrrolidinyl]-1-(2,4-Difluorophenyl)-6-Flu oro-1,4-Dihydro-4-Oxo 1.8-Naphthyridine-3-Carboxylic Acid Hydrochloride] | 2.4 | 7.8 | 0.5 | 1.8 |  | 0.2 | 1.8 |  | 25 |  | 
CC(C)C[C@H](NC(=O)[C@@H](N)CC(C)C)C(=O)NC1CCN(c2nc3c(cc2F)c(=O)c(C(=O)O)cn3-c2ccc(F)cc2F)C1 (stereo partly drawn) [Example 55q, 7-(3 Leu-Leu-amino-1-pyrrolidinyl)-6-fluoro-1-(2,4-difluorophenyl)-1,4-dihydro- 4-oxo-1,8-naphthyridine-3-carboxylic acid] |  |  |  |  | 0.19 |  |  |  |  |  | 
CSCC[C@H](NC(=O)[C@@H](N)CC(C)C)C(=O)NC1CCN(c2nc3c(cc2F)c(=O)c(C(=O)O)cn3-c2ccc(F)cc2F)C1 (stereo partly drawn) [Example 55p, 7-(3-Leu-Met-amino-1-pyrrolidinyl)-6-fluoro-1-(2,4-difluorophenyl)-1,4-dih ydro-4-oxo-1,8-naphthyridine-3-carboxylic acid] |  |  |  |  | 0.06 |  |  |  |  |  | 
CCCC(N)C(=O)NC1CCN(c2cc3c(cc2F)c(=O)c(C(=O)O)cn3C2CC2)C1 (stereo not shown) [Example 26l] | 2.8 | 18.2 | 4.0 |  |  | 0.5 | 9.4 | 1.975 |  |  | 
CCCC(N)C(=O)NC1CCN(c2nc3c(cc2F)c(=O)c(C(=O)O)cn3-c2ccc(F)cc2)C1 (stereo not shown) [Example 26i] |  |  | 0.7 | 5.3 |  |  |  | 1.802 | 1.56 (≈ 3.21 µM) |  | 
CC(C)CC(N)C(=O)NC1CCN(c2nc3c(cc2F)c(=O)c(C(=O)O)cn3C2CC2)C1 (stereo not shown) [Example 26o] | 3.9 | 6.2 | 1.0 | 4.0 |  | 0.2 | 1.2 | 1.81 |  |  | 
CCC[C@H](N)C(=O)NC1CCN(c2nc3c(cc2F)c(=O)c(C(=O)O)cn3CC)C1 (stereo partly shown) [Example 26ff] | 10.3 | 30.5 |  |  |  |  |  | 1.54 |  |  | 
N[C@@H](Cc1cnc[nH]1)C(=O)NC1CCN(c2nc3c(cc2F)c(=O)c(C(=O)O)cn3-c2ccc(F)cc2F)C1 (stereo partly drawn) [Example 44c, 7-(3-L-histidine-amino-1-pyrrolidinyl)-1-(2,4-difluorophenyl)-6-fluoro-1,4-dihydro-4-oxo-1,8-naphthyridine-3-carboxylic acid hydrochloride] | 8.3 | 51.3 | 0.7 | 4.0 |  |  |  |  |  | > 64 | 
CC(N)C(=O)NC1CCN(c2c(F)cc3c(=O)c(C(=O)O)cn(C4CC4)c3c2F)C1 (stereo not shown) [Example 26s] | 2.4 | 5.0 | 1.3 | 4.8 |  | 0.1 | 1.8 |  |  |  | 
CCCC(N)C(=O)NC1CCN(c2cc3c(cc2F)c(=O)c(C(=O)O)cn3-c2ccc(F)cc2F)C1 (stereo not shown) [Example 26b] | 6.7 | 18.2 | 0.8 | 27.9 |  |  |  | 0.723 |  |  | 
CC(C)C[C@H](NC(=O)[C@H](C)N)C(=O)NC1CCN(c2nc3c(cc2F)c(=O)c(C(=O)O)cn3-c2ccc(F)cc2F)C1 (stereo partly drawn) [Example 55r, 7-(3-Ala-Leu-amino-1-pyrrolidinyl)-6-fluoro-1-(2,4-difluorophenyl)-1,4-dih ydro-4-oxo-1,8-naphthyridine-3-carboxylic acid] |  |  |  |  | 2.0 |  |  |  |  |  | 
CC(C)C(N)C(=O)NC1CCN(c2nc3c(cc2F)c(=O)c(C(=O)O)cn3-c2ccc(F)cc2F)C1 (stereo not shown) [Example 19] |  |  |  |  | 0.41 |  |  |  |  |  | 
CCCC(N)C(=O)NC1CCN(c2nc3c(cc2F)c(=O)c(C(=O)O)cn3C2CC2)C1 (stereo not shown) [Example 26p] | 2.8 | 9.1 | 6.8 | 4.5 |  |  |  | 1.17 |  |  | 
CCCC(N)C(=O)NC1CCN(c2cc3c(cc2F)c(=O)c(C(=O)O)cn3-c2ccc(F)cc2)C1 (stereo not shown) [Example 26h] | 8.5 | 101.3 | 1.0 | 4.0 |  | 0.8 | 12.1 | 0.852 |  |  | 0.78 (≈ 1.61 µM)
Cl.NCC(=O)N[C@@H](Cc1ccccc1)C(=O)NC1CCN(c2cc3c(cc2F)c(=O)c(C(=O)O)cn3-c2ccc(F)cc2F)C1 (stereo partly drawn) [Example 26jj, 1-(2,4-Difluorophenyl)-6-Fluoro-7-(3-Gly-L-Phe-Amino-1-Pyrrolidinyl)-1,4-Di hydro-4-Oxo-Quinoline-3-Carboxylic Acid Hydrochloride] |  |  |  |  |  |  |  |  |  |  | 16
CSCC[C@H](NC(=O)[C@@H](N)CCSC)C(=O)NC1CCN(c2nc3c(cc2F)c(=O)c(C(=O)O)cn3-c2ccc(F)cc2F)C1 (stereo partly drawn) [Example 55o, 7-(3-Met-Met-amino-1-pyrrolidinyl)-6-fluoro-1-(2,4-difluorophenyl)-1,4-dih ydro-4-oxo-1,8-naphthyridine-3-carboxylic acid] |  |  |  |  | 0.31 |  |  |  |  |  | 
CSCC[C@H](NC(=O)[C@H](C)N)C(=O)NC1CCN(c2nc3c(cc2F)c(=O)c(C(=O)O)cn3-c2ccc(F)cc2F)C1 (stereo partly drawn) [Example 55n, 7-(3-Ala-Met-amino-1-pyrrolidinyl)-6-fluoro-1-(2,4-difluorophenyl)-1,4-dih ydro-4-oxo-1,8-naphthyridine-3-carboxylic acid] |  |  |  |  | 2.50 |  |  |  |  |  | 
NC(=O)C[C@H](N)C(=O)NC1CCN(c2nc3c(cc2F)c(=O)c(C(=O)O)cn3-c2ccc(F)cc2F)C1 (stereo partly drawn) [Example 41, 7-(3-L-Asparagine-amino-1-pyrrolidinyl)-1-(2,4-difluorophenyl)-6-fluoro-1,4-dihydro-4-oxo-1,8-naphthyridine-3-carboxylic acid hydrochloride] | 2.8 | 17.2 | 0.7 | 2.9 |  |  |  |  |  |  | 
